Laboratory results from patent publication US20100120730A1, “6-BENZYL-2,3,4,7-TETRAHYDRO-INDOLO [2,3-C] QUINOLINE COMPOUNDS USEFUL AS PDE5 INHIBITORS” (NYCOMED GmbH, priority 2007, published 2010).
Counter-ions that a name gives are not always drawn.

Experiments:
human PDE5 = molecular target: T1, human PDE5 (Homo sapiens, UniProt O76074); assay: Inhibition of PDE5 activity (modified SPA test, human platelet lysate); format: biochemical; details: PDE5-containing human platelet lysate, 0.5 μM cGMP substrate, 37° C.
T1 construct: from tissue; host or cells: human platelets from fresh donor blood (10,000 g supernatant of sonified platelets)
Description: As a source for human PDE5, platelets were used. For that purpose, 150 ml fresh blood from human donors anticoagulated with citrate [final concentration 0.3% (w/v)] was centrifuged at 200 g for 10 min to obtain the so-called platelet-rich-plasma (PRP) as a supernatant. 1/10 volume of ACD solution (85 mM Na3-citrate, 111 mM D-glucose, 71 mM citric acid, pH 4.4) was added to 9/10 volume of PRP. After centrifugation (1,400 g, 10 min) the cell pellet was resuspended in 3 ml homogenization buffer (NaCl 140 mM, KCl 3.8 mM, EGTA 1 mM, MgCl2 1 mM, Tris-HCl 20 mM, beta-mercaptoethanol 1 mM, pH 8.2) plus protease-inhibitor mix giving rise to the final concentrations of 0.5 mM Pefablock (Roche), 10 μM Leupeptin, 5 μM Trypsininhibitor, 2 mM Benzamidin and 10 μM Pepstatin A. The suspension was sonified and thereafter centrifuged for 15 min at 10,000 g. The resulting supernatant (platelet lysate) was used for enzymatic testings.
PDE5A1 activity is inhibited by the compounds of the invention in a modified SPA (scintillation proximity assay) test, supplied by Amersham Biosciences (see procedural instructions “phosphodiesterase [3H]cAMP SPA enzyme assay, code TRKQ 7090”), carried out in 96-well microtitre plates (MTP's). The test volume is 100 μl and contains 20 mM Tris buffer (pH 7.4), 0.1 mg of BSA (bovine serum albumin)/ml, 5 mM Mg^2+, 1 μM motapizone, 10 nM PDE2 inhibitor BAY-60-7550, 0.5 μM cGMP (including about 50,000 cpm of [3H]cGMP as a tracer), 1 μl of the respective compound dilution in dimethylsulfoxide (DMSO) and sufficient PDE5-containing platelet lysat (10,000×g supernatant, see above) to ensure that 10-20 wt % of the cGMP is converted under the said experimental conditions. […] After a preincubation of 5 min at 37° C., the reaction was started by adding the substrate (cGMP) and the assay was incubated for a further 15 min; after that, it was stopped by adding SPA beads (50 μl). In accordance with the manufacturer's instructions, the SPA beads had previously been resuspended in water, but were then diluted 1:3 (v/v) in water; the diluted solution also contains 3 mM 8-methoxymethyl-3-isobutyl-1-methylxanthine (IBMX) to ensure a complete PDE activity stop. After the beads have been sedimented (>30 min), the MTP's are analyzed in commercially available luminescence detection devices. The corresponding IC50 values of the compounds for the inhibition of PDE activity are determined from the concentration-effect curves by means of non-linear regression.

| melting point [°C] | IC50 (human PDE5) [nM] | SMILES |
| --- | --- | --- |
| 244 to 245 |  | CC1(C)CC(=O)c2c(nc(Cc3ccc(Br)cc3)c3[nH]c4ccccc4c23)C1 (as salt: HCl) [Example 5, 6-(4-Bromo-benzyl)-3,3-dimethyl-2,3,4,7-tetrahydro-indolo[2,3-c]quinolin-1-one, HCl salt] |
| 214 to 215 |  | CC1(C)CC(=O)c2c(nc(Cc3ccc([N+](=O)[O-])cc3)c3[nH]c4ccccc4c23)C1 (as salt: HCl) [Example 8, 3,3-Dimethyl-6-(4-nitro-benzyl)-2,3,4,7-tetrahydro-indolo[2,3-c]quinolin-1-one, HCl salt] |
| 311 to 312 |  | Brc1ccc(Cc2nc3c(c4c2[nH]c2ccccc24)CCCC3)cc1 (as salt: HCl) [Example 9, 6-(4-Bromo-benzyl)-2,3,4,7-tetrahydro-1H-indolo[2,3-c]quinoline, HCl salt] |
| 114 to 119 |  | CC1(C)Cc2nc(Cc3ccc4c(c3)OCO4)c3[nH]c4ccccc4c3c2C(O)C1 (stereo not shown) (as salt: HCl) [Example 59, 6-Benzo[1,3]dioxol-5-ylmethyl-3,3-dimethyl-2,3,4,7-tetrahydro-1H-indolo[2,3-c]quinolin-1-ol] |
|  | 3.02 | COc1ccc(Cc2nc3c(c4c2[nH]c2ccccc24)C(=O)CC(C)(C)C3)cc1 [Example 1, 6-(4-Methoxy-benzyl)-3,3-dimethyl-2,3,4,7-tetrahydro-indolo[2,3-c]quinolin-1-one] |
|  | 10.7 | CC1(C)CC(=O)c2c(nc(Cc3ccc(Br)cc3)c3[nH]c4ccccc4c23)C1 [Example 5, 6-(4-Bromo-benzyl)-3,3-dimethyl-2,3,4,7-tetrahydro-indolo[2,3-c]quinolin-1-one, HCl salt] |
|  | 12.6 | COc1ccc(Cc2nc3c(c4c2[nH]c2ccccc24)CCCC3)cc1 [Example 6, 6-(4-Methoxy-benzyl)-2,3,4,7-tetrahydro-1H-indolo[2,3-c]quinoline, HCl salt] |
|  | 3.89 | CC1(C)CC(=O)c2c(nc(Cc3ccc4c(c3)OCO4)c3[nH]c4ccccc4c23)C1 [Example 7, 6-Benzo[1,3]dioxol-5-ylmethyl-3,3-dimethyl-2,3,4,7-tetrahydro-indolo[2,3-c]quinolin-1-one, HCl salt] |
|  | 81.3 | CC1(C)CC(=O)c2c(nc(Cc3ccc([N+](=O)[O-])cc3)c3[nH]c4ccccc4c23)C1 [Example 8, 3,3-Dimethyl-6-(4-nitro-benzyl)-2,3,4,7-tetrahydro-indolo[2,3-c]quinolin-1-one, HCl salt] |
|  | 22.9 | Brc1ccc(Cc2nc3c(c4c2[nH]c2ccccc24)CCCC3)cc1 [Example 9, 6-(4-Bromo-benzyl)-2,3,4,7-tetrahydro-1H-indolo[2,3-c]quinoline, HCl salt] |
|  | 79.4 | COc1cccc(Cc2nc3c(c4c2[nH]c2ccccc24)C(=O)CC(C)(C)C3)c1 [Example 10, 6-(3-Methoxy-benzyl)-3,3-dimethyl-2,3,4,7-tetrahydro-indolo[2,3-c]quinolin-1-one] |
|  | 135 | CC1(C)CC(=O)c2c(nc(Cc3cccc([N+](=O)[O-])c3)c3[nH]c4ccccc4c23)C1 [Example 13, 3,3-Dimethyl-6-(3-nitro-benzyl)-2,3,4,7-tetrahydro-indolo[2,3-c]quinolin-1-one] |
| 164 to 166 |  | CC1(C)CC(=O)c2c(nc(Cc3ccc([N+](=O)[O-])cc3)c3[nH]c4ccccc4c23)C1 [Example 16, 3,3-Dimethyl-6-(4-nitro-benzyl)-2,3,4,7-tetrahydro-indolo[2,3-c]quinolin-1-one] |
|  | 288 | O=C1CCCc2nc(Cc3cccc([N+](=O)[O-])c3)c3[nH]c4ccccc4c3c21 [Example 19, 6-(3-Nitro-benzyl)-2,3,4,7-tetrahydro-indolo[2,3-c]quinolin-1-one] |
|  | 1.91 | CC1(C)CC(=O)c2c(nc(Cc3ccc(O)cc3)c3[nH]c4ccccc4c23)C1 [Example 39, 6-(4-Hydroxy-benzyl)-3,3-dimethyl-2,3,4,7-tetrahydro-indolo[2,3-c]quinolin-1-one] |
|  | 25.7 | Nc1ccc(Cc2nc3c(c4c2[nH]c2ccccc24)C(=O)CCC3)cc1 [Example 42, 6-(4-Amino-benzyl)-2,3,4,7-tetrahydro-indolo[2,3-c]quinolin-1-one] |
|  | 11.5 | Nc1cccc(Cc2nc3c(c4c2[nH]c2ccccc24)C(=O)CCC3)c1 [Example 43, 6-(3-Amino-benzyl)-2,3,4,7-tetrahydro-indolo[2,3-c]quinolin-1-one] |
|  | 34.7 | CCC(=O)Nc1ccc(Cc2nc3c(c4c2[nH]c2ccccc24)C(=O)CC(C)(C)C3)cc1 [Example 45, N-[4-(3,3-Dimethyl-1-oxo-2,3,4,7-tetrahydro-1H-indolo[2,3-c]quinolin-6-ylmethyl)-phenyl]-propionamide] |
|  | 67.6 | CC(=O)Nc1ccc(Cc2nc3c(c4c2[nH]c2ccccc24)C(=O)CCC3)cc1 [Example 46, N-[4-(1-Oxo-2,3,4,7-tetrahydro-1H-indolo[2,3-c]quinolin-6-ylmethyl)-phenyl]-acetamide] |
|  | 2.69 | CC1(C)Cc2nc(Cc3ccc4c(c3)OCO4)c3[nH]c4ccccc4c3c2C(O)C1 (stereo not shown) [Example 59, 6-Benzo[1,3]dioxol-5-ylmethyl-3,3-dimethyl-2,3,4,7-tetrahydro-1H-indolo[2,3-c]quinolin-1-ol] |
|  | 1.12 | COc1ccc(Cc2nc3c(c4c2[nH]c2ccccc24)C(O)CC(C)(C)C3)c(F)c1 (stereo not shown) [Example 65, 6-(2-Fluoro-4-methoxy-benzyl)-3,3-dimethyl-2,3,4,7-tetrahydro-1H-indolo[2,3-c]quinolin-1-ol] |
|  | 1.58 | COc1ccc(Cc2nc3c(c4c2[nH]c2ccccc24)C(O)CC(C)(C)C3)cc1F (stereo not shown) [Example 68, 6-(3-Fluoro-4-methoxy-benzyl)-3,3-dimethyl-2,3,4,7-tetrahydro-1H-indolo[2,3-c]quinolin-1-ol] |
|  | 49 | Nc1cccc(Cc2nc3c(c4c2[nH]c2ccccc24)C(O)CCC3)c1 (stereo not shown) [Example 72, 6-(3-Amino-benzyl)-2,3,4,7-tetrahydro-1H-indolo[2,3-c]quinolin-1-ol] |
|  | 10.5 | CC1(C)CC(=O)c2c(nc(Cc3ccc(NC(N)=O)cc3)c3[nH]c4ccccc4c23)C1 [Example 75, [4-(3,3-Dimethyl-1-oxo-2,3,4,7-tetrahydro-1H-indolo[2,3-c]quinolin-6-ylmethyl)-phenyl]-urea] |
| 232 to 234 |  | CC1(C)Cc2nc(Cc3ccc(O)c(F)c3)c3[nH]c4ccccc4c3c2[C@H](O)C1 [Example 87, (R)-6-(3-Fluoro-4-hydroxy-benzyl)-3,3-dimethyl-2,3,4,7-tetrahydro-1H-indolo[2,3-c]quinolin-1-ol] |
| 233 to 234 |  | CC1(C)Cc2nc(Cc3ccc(O)c(F)c3)c3[nH]c4ccccc4c3c2[C@@H](O)C1 [Example 88, (S)-6-(3-Fluoro-4-hydroxy-benzyl)-3,3-dimethyl-2,3,4,7-tetrahydro-1H-indolo[2,3-c]quinolin-1-ol] |
| 161 to 162 |  | COc1c(F)cc(Cc2nc3c(c4c2[nH]c2ccccc24)[C@@H](O)CC(C)(C)C3)cc1F [Example 89, (S)-6-(3,5-Difluoro-4-methoxy-benzyl)-3,3-dimethyl-2,3,4,7-tetrahydro-1H-indolo[2,3-c]quinolin-1-ol] |
| 161 to 162 |  | COc1c(F)cc(Cc2nc3c(c4c2[nH]c2ccccc24)[C@H](O)CC(C)(C)C3)cc1F [Example 90, (R)-6-(3,5-Difluoro-4-methoxy-benzyl)-3,3-dimethyl-2,3,4,7-tetrahydro-1H-indolo[2,3-c]quinolin-1-ol] |
